Drawing on PubChem BioAssay AID330 (DTP/NCI, 2004), this text covers T/C for 18 compounds.

The subject of the assay is P388 leukemia ip, CD2F1 mice, survival T/C. In words: NCI In Vivo Anticancer Drug Screen. Data for tumor model P388 Leukemia (intraperitoneal) in CD2F1 (CDF1) mice. The following applies: endpoint: median survival time, higher = longer survival. In outline: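 Mice carrying the transplanted tumor received test compound or vehicle. Survival was recorded in each group, and the value is the treated-group measurement divided by that of the vehicle-treated control group.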

The mark [1] stands for this setting: dose: 50.0 mg/kg/injection, schedule: Q01DX009 (ip), vehicle: saline with Tween-80.
The mark [2] stands for this setting: dose: 12.5 mg/kg/injection, schedule: Q01DX009 (ip), vehicle: saline with Tween-80.
[3] abbreviates: dose: 25.0 mg/kg/injection, schedule: Q01DX009 (ip), vehicle: saline with Tween-80.
[4] abbreviates: dose: 25.0 mg/kg/injection, schedule: Q01DX005 (ip), vehicle: saline.
Setting [5] is: dose: 50.0 mg/kg/injection, schedule: Q01DX005 (ip), vehicle: saline.
Setting [6] is: dose: 100.0 mg/kg/injection, schedule: Q01DX005 (ip), vehicle: saline.
Where [7] appears, read: dose: 200.0 mg/kg/injection, schedule: Q01DX005 (ip), vehicle: saline.

Values joined by “and” are separate entries in the source; they are usually repeats but may differ in a detail not shown here. Equal entries are not always repeated. Toxic doses and inconclusive results are not listed.

As to `O=C(Cc1ccccc1)c1c[nH]c2c(O)ccc(O)c12`, the T/C reads like this: (dose: 50.0 mg/kg/injection, schedule: Q04DX002 (ip), vehicle: Klucel (hydroxypropylcellulose) (HPC)) 104 % of control; (dose: 100.0 mg/kg/injection, schedule: Q04DX002 (ip), vehicle: Klucel (hydroxypropylcellulose) (HPC)) 108 % of control; (dose: 200.0 mg/kg/injection, schedule: Q04DX002 (ip), vehicle: Klucel (hydroxypropylcellulose) (HPC)) 111 % of control.
As for `COc1ccc(C2N(c3ccccc3)CCN2c2ccccc2)cc1`, the T/C is, setting by setting: (dose: 50.0 mg/kg/injection, schedule: Q01DX005 (ip), vehicle: saline with Tween-80) 99 % of control; (dose: 100.0 mg/kg/injection, schedule: Q01DX005 (ip), vehicle: saline with Tween-80) 93 % of control; (dose: 200.0 mg/kg/injection, schedule: Q01DX005 (ip), vehicle: saline with Tween-80) 93 % of control.
As to `CC(=O)Nc1cc(N(CCOS(C)(=O)=O)CCOS(C)(=O)=O)ccc1N=O`, the T/C (dose: 0.08 mg/kg/injection, schedule: Q01DX009 (ip), vehicle: saline) was 154 % of control; the T/C (dose: 1.25 mg/kg/injection, schedule: Q04DX003 (ip), vehicle: saline sonified) was 168 % of control; the T/C (dose: 2.5 mg/kg/injection, schedule: Q04DX003 (ip), vehicle: saline sonified) was 177 % of control; the T/C (dose: 75.0 micrograms/kg/injection, schedule: Q01DX009 (ip), vehicle: saline) was 159 % of control; the T/C (dose: 150.0 micrograms/kg/injection, schedule: Q01DX009 (ip), vehicle: saline) is 159 % of control.
Turning to `Nc1nc2ncc(CNc3ccc(C(=O)NC(CCC(=O)O)C(=O)O)cc3)nc2c(=O)[nH]1` (centres undefined), the T/C was 103 % of control (dose: 6.25 mg/kg/injection, schedule: Q01DX009 (ip), vehicle: saline); 99 % of control and 98 % of control (dose: 12.5 mg/kg/injection, schedule: Q01DX009 (ip), vehicle: saline); 99 % of control and 96 % of control (dose: 25.0 mg/kg/injection, schedule: Q01DX009 (ip), vehicle: saline); 103 % of control (dose: 45.0 mg/kg/injection, schedule: Q04DX003 (ip), vehicle: saline); 108 % of control under setting [1]; 101 % of control and 103 % of control (dose: 50.0 mg/kg/injection, schedule: Q01DX009 (ip), vehicle: saline). Moreover, the T/C reads like this: (dose: 90.0 mg/kg/injection, schedule: Q04DX003 (ip), vehicle: saline) 61 % of control; (dose: 100.0 mg/kg/injection, schedule: Q01DX009 (ip), vehicle: saline) 98 % of control; (dose: 180.0 mg/kg/injection, schedule: Q04DX003 (ip), vehicle: saline) 40 % of control.
As to `COC(=O)[C@@]12OC[C@]34[C@H]([C@@H](O)[C@@H]1O)[C@@]1(C)CC(=O)C(O)=C(C)[C@@H]1C[C@H]3OC(=O)[C@H](OC(=O)/C=C(/C)C(C)(C)O)[C@@H]24`, the T/C is, setting by setting: (dose: 0.25 mg/kg/injection, schedule: Q01DX009 (ip), vehicle: saline + alcohol) 113 % of control and 115 % of control; (dose: 0.5 mg/kg/injection, schedule: Q01DX009 (ip), vehicle: saline + alcohol) 115 % of control (2×) and 124 % of control; (dose: 8.0 mg/kg/injection, schedule: Q01DX009 (ip), vehicle: saline + alcohol) 162 % of control.
`CN1CCc2c(c3ccccc3c3ccccc23)C1`: the T/C runs as follows: (dose: 0.09 mg/kg/injection, schedule: Q01DX009 (ip), vehicle: Klucel (hydroxypropylcellulose) (HPC)) 99 % of control; (dose: 0.19 mg/kg/injection, schedule: Q01DX009 (ip), vehicle: Klucel (hydroxypropylcellulose) (HPC)) 107 % of control; (dose: 0.39 mg/kg/injection, schedule: Q01DX009 (ip), vehicle: Klucel (hydroxypropylcellulose) (HPC)) 104 % of control; (dose: 0.78 mg/kg/injection, schedule: Q01DX009 (ip), vehicle: Klucel (hydroxypropylcellulose) (HPC)) 102 % of control; (dose: 1.56 mg/kg/injection, schedule: Q01DX009 (ip), vehicle: Klucel (hydroxypropylcellulose) (HPC)) 104 % of control and 91 % of control; (dose: 3.12 mg/kg/injection, schedule: Q01DX009 (ip), vehicle: Klucel (hydroxypropylcellulose) (HPC)) 94 % of control. For the same compound, the T/C is 86 % of control and 96 % of control (dose: 6.25 mg/kg/injection, schedule: Q01DX009 (ip), vehicle: Klucel (hydroxypropylcellulose) (HPC)); 104 % of control (dose: 12.5 mg/kg/injection, schedule: Q01DX009 (ip), vehicle: Klucel (hydroxypropylcellulose) (HPC)); 113 % of control and 92 % of control (dose: 25.0 mg/kg/injection, schedule: Q01DX009 (ip), vehicle: Klucel (hydroxypropylcellulose) (HPC)); 105 % of control (dose: 50.0 mg/kg/injection, schedule: Q01DX009 (ip), vehicle: Klucel (hydroxypropylcellulose) (HPC)).
`CCOC(=O)C(NC(=O)OCc1ccccc1)C(O)C#C[Si](C)(C)C` (centres undefined): the T/C (dose: 100.0 mg/kg/injection, schedule: Q04DX002 (ip), vehicle: saline with Tween-80) was 95 % of control; the T/C (dose: 200.0 mg/kg/injection, schedule: Q04DX002 (ip), vehicle: saline with Tween-80) was 95 % of control; the T/C (dose: 400.0 mg/kg/injection, schedule: Q04DX002 (ip), vehicle: saline with Tween-80) was 90 % of control.
Consider `CS/C(=C1/C(=O)N(c2ccccc2)N=C1c1ccc(C)cc1)N1CC1`, for which the T/C was 91 % of control (dose: 100.0 mg/kg/injection, schedule: Q04DX003 (ip), vehicle: Klucel (hydroxypropylcellulose) (HPC)); 94 % of control (dose: 200.0 mg/kg/injection, schedule: Q04DX003 (ip), vehicle: Klucel (hydroxypropylcellulose) (HPC)); 94 % of control (dose: 400.0 mg/kg/injection, schedule: Q04DX003 (ip), vehicle: Klucel (hydroxypropylcellulose) (HPC)).
On to `O=C(Oc1cc([N+](=O)[O-])cc([N+](=O)[O-])c1)C(c1ccccc1)c1ccccc1`, for which the T/C is, setting by setting: under setting [2], 106 % of control; under setting [3], 112 % of control; under setting [1], 118 % of control.
Turning to `CCOC(=O)C(CCCCC(NC(C)=O)(C(=O)OCC)C(=O)OCC)(NC(C)=O)C(=O)OCC`, the T/C is, setting by setting: (dose: 100.0 mg/kg/injection, schedule: Q04DX003 (ip), vehicle: saline with Tween-80) 100 % of control; (dose: 200.0 mg/kg/injection, schedule: Q04DX003 (ip), vehicle: saline with Tween-80) 100 % of control; (dose: 400.0 mg/kg/injection, schedule: Q04DX003 (ip), vehicle: saline with Tween-80) 95 % of control.
On to `CN1CCCCC1Cc1ccccc1` (centres undefined), for which the T/C runs as follows: (dose: 6.25 mg/kg/injection, schedule: Q01DX005 (ip), vehicle: saline) 103 % of control; (dose: 12.5 mg/kg/injection, schedule: Q01DX005 (ip), vehicle: saline) 102 % of control; under setting [4], 100 % of control.
In the case of `CC(=O)c1ccc2c(c1)NC(=O)CC(C)N2` (centres undefined), the T/C was 99 % of control (dose: 50.0 mg/kg/injection, schedule: Q01DX005 (ip), vehicle: Klucel (hydroxypropylcellulose) (HPC)); 99 % of control (dose: 100.0 mg/kg/injection, schedule: Q01DX005 (ip), vehicle: Klucel (hydroxypropylcellulose) (HPC)); 103 % of control (dose: 200.0 mg/kg/injection, schedule: Q01DX005 (ip), vehicle: Klucel (hydroxypropylcellulose) (HPC)).
On to `CCCCN1CSC2CCCCC21` (centres undefined), for which the T/C by setting is: under setting [4], 98 % of control; under setting [5], 111 % of control and 93 % of control; under setting [6], 104 % of control and 111 % of control; under setting [7], 121 % of control.
For `NCC(N)CCC(=O)O` (centres undefined), the T/C is 99 % of control under setting [5], 105 % of control under setting [6] and 105 % of control under setting [7].
As to `NCC12CC3CC(CC(C3)C1)C2`, the T/C is, setting by setting: under setting [2], 103 % of control; under setting [3], 102 % of control; under setting [1], 100 % of control and 102 % of control.
Consider `COc1ccc(C(=S)NC(O)C(=O)c2ccc(Cl)cc2)cc1OC` (centres undefined), for which the T/C by setting is: under setting [1], 103 % of control; (dose: 100.0 mg/kg/injection, schedule: Q01DX009 (ip), vehicle: saline with Tween-80) 103 % of control.
On to `CCOC(=O)c1ccc2c(c1)NCc1cccc(OC)c1O2`, for which the T/C runs as follows: (dose: 60.0 mg/kg/injection, schedule: Q01DX005 (ip), vehicle: Klucel (hydroxypropylcellulose) (HPC)) 100 % of control; (dose: 120.0 mg/kg/injection, schedule: Q01DX005 (ip), vehicle: Klucel (hydroxypropylcellulose) (HPC)) 103 % of control; (dose: 240.0 mg/kg/injection, schedule: Q01DX005 (ip), vehicle: Klucel (hydroxypropylcellulose) (HPC)) 100 % of control.
Regarding `O=[N+]([O-])/C=C/c1c(Cl)cccc1Cl`, the T/C is 99 % of control (dose: 12.5 mg/kg/injection, schedule: Q04DX003 (ip), vehicle: saline with Tween-80); 100 % of control (dose: 25.0 mg/kg/injection, schedule: Q04DX003 (ip), vehicle: saline with Tween-80); 100 % of control (dose: 50.0 mg/kg/injection, schedule: Q04DX003 (ip), vehicle: saline with Tween-80).
